Bounds are passed on as bounds.

Here are results for 15 molecules from patent publication US7081468B2, “Ortho-substituted anthranilic acid amides and their use as medicaments” (Schering AG, priority 2000, dated 2006).

The target of one data set is C-Kit (Homo sapiens, UniProt P10721). The data set is described as follows: C-Kit-isolated kinase-inhibition test. It counts as biochemical. To be noted: 10 minutes incubation. On the procedure:
C-Kit-Isolated Kinase-Inhibition Test
Assay Solutions Substrate Solutions for 125 Assays:
10 μl of ATP (37.5 μM), 25 μCi of γ33P-ATP (˜+2.5 μl of Amersham redivue solution) and 10 μl of poly-(glu,tyr) are mixed with 1.23 ml of solvent (1×).
The compounds are brought to the desired concentration in the solvent (1×).
The corresponding enzymatic preparation is brought to the necessary concentration with the solvent (1×) to obtain 1.24 ml. Then, 12.5 μl of sodium vanadate solution is added.
The components are added in the following sequence to a microtiter plate with round or stippled floors:
10 μl of the inhibitor in 3× final concentration,
10 μl of substrate mixture,
said components are mixed, and the reaction is started by adding:
10 μl of enzyme preparation.
The batch is incubated for 10 minutes and then brought to a halt by adding 10 μl of stop solution. 10 μl of the thus treated batch is added to the phosphocellulose filter, rewashed in phosphoric acid, then dried and then melted in a meltilex scintillator and measured.

The target in a further data set is KDR kinase (Homo sapiens, UniProt P35968). Description: Inhibition of the KDR kinase activity (33P-ATP, poly-(Glu4Tyr) filter assay). It counts as biochemical. To be noted: 10 minutes at room temperature. The protocol: Solutions Required for the Tests
KDR kinase, sequence (P35968 20-1356): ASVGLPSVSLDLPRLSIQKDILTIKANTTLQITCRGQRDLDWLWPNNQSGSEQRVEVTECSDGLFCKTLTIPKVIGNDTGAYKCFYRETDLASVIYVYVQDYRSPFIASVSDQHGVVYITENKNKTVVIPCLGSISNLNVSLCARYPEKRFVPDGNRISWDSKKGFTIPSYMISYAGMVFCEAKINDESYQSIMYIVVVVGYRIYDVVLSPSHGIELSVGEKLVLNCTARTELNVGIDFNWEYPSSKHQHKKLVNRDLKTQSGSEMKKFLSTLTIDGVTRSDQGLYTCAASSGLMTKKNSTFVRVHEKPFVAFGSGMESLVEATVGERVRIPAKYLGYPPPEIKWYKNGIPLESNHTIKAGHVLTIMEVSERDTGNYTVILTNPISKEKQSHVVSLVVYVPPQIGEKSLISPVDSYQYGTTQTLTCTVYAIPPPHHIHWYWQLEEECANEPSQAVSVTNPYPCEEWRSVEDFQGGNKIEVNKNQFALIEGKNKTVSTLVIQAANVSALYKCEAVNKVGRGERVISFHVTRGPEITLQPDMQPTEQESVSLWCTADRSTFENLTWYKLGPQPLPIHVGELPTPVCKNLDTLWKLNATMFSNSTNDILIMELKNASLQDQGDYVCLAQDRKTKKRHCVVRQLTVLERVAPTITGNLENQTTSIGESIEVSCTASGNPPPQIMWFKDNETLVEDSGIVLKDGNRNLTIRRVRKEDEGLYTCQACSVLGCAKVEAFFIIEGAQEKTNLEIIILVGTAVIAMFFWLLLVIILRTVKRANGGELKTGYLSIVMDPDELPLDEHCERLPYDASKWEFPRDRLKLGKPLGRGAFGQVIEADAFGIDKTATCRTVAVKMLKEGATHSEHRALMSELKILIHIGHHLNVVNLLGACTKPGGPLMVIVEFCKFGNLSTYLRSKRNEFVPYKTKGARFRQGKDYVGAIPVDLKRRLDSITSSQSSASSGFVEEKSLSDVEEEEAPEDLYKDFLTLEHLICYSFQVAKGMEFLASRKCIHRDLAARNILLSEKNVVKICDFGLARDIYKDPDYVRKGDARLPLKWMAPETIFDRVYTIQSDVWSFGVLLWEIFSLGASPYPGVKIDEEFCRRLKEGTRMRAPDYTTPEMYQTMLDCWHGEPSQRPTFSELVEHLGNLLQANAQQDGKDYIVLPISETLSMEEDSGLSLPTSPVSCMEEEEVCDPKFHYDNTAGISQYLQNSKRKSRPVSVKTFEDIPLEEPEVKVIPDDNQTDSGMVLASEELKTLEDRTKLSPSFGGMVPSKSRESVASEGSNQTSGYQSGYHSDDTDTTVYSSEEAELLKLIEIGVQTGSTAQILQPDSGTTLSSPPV
• Stock solution A: 3 mmol of ATP in water, pH 7.0 (−70° C.) • Stock solution B: g-33P-ATP 1 mCi/100 μl • Stock solution C: poly-(Glu4Tyr) 10 mg/ml in water Solution for Dilutions • Substrate solvent: 10 mmol of DTT, 10 mmol of manganese chloride, 100 mmol of magnesium chloride • Enzyme solution: 120 mmol of tris/HCl, pH 7.5, 10 μM of sodium vanadium oxide Sample Application 1 Inhibition of the KDR Kinase Activity in the Presence of the Compounds According to the Invention
In a microtiter plate (without protein binding) that tapers to a point, 10 μl of substrate mix (10 μl of volume of ATP stock solution A+25 μCi of g-33P-ATP (about 2.5 μl of stock solution B)+30 μl of poly-(Glu4Tyr) stock solution C+1.21 ml of substrate solvent), 10 μl of inhibitor solution (substances corresponding to the dilutions, 3% DMSO in substrate solvent as a control) and 10 μl of enzyme solution (11.25 μg of enzyme stock solution (KDR or FLT-1 kinase) are added at 4° C. in 1.25 ml of enzyme solution (dilute). It is thoroughly mixed and incubated for 10 minutes at room temperature. Then, 10 μl of stop solution (250 mmol of EDTA, pH 7.0) is added, mixed, and 10 μl of the solution is transferred to a P 81 phosphocellulose filter. Then, it is washed several times in 0.1 M phosphoric acid. The filter paper is dried, coated with Meltilex and measured in a microbeta counter.
The IC50 values are determined from the inhibitor concentration that is necessary to inhibit the phosphate incorporation to 50% of the uninhibited incorporation after removal of the blank reading (EDTA-stopped reaction).

C-Kit, sequence (P10721 26-976): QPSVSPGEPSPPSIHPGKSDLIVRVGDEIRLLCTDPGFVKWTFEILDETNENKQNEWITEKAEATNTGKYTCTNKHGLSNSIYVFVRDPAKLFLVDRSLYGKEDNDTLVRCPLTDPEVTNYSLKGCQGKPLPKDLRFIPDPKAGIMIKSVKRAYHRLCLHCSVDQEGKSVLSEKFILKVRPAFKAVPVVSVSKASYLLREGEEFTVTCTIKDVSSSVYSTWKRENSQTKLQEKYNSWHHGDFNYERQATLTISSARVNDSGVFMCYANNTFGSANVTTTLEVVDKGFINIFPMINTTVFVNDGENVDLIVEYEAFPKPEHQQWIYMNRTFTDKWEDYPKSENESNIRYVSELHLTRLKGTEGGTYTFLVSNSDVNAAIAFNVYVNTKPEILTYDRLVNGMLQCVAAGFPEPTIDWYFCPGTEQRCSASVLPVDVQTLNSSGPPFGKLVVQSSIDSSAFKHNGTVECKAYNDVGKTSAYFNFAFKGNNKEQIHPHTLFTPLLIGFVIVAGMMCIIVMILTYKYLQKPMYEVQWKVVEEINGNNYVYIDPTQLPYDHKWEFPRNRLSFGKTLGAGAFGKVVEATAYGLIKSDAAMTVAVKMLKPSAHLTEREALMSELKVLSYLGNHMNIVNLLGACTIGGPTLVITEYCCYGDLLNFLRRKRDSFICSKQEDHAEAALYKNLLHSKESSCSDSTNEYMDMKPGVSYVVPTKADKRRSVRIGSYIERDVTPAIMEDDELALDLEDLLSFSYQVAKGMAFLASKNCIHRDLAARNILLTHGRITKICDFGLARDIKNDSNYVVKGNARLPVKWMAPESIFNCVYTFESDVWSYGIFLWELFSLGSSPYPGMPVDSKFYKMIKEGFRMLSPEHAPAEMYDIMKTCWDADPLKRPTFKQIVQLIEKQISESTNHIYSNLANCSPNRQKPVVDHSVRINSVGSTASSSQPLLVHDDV

For the molecule `O=C(Nc1cc2ccccc2oc1=O)c1ccccc1NCc1ccncc1` [Example 1, N-[2-Oxo-2H-1-benzopyran-3-yl-]-2-[(4-pyridyl)methyl]amino-benzoic acid amide], the IC50 (usually the concentration needed to halve the response being measured) on C-Kit turned out to be 6000 nM; against KDR kinase, 3 nM.

Consider `O=C(Nc1cc2cn[nH]c2cc1Cl)c1ccccc1NCc1ccncc1` [Example 2, N-(6-Chloroindazol-5-yl)-2-[(4-pyridyl)methyl]amino-benzoic acid amide], for which the values for the IC50 against C-Kit and against KDR kinase were more than 10000 nM and 200 nM, respectively.

Take `Cc1cc2oc(=O)ccc2cc1NC(=O)c1ccccc1NCc1ccncc1` [Example 3]: the melting point (in general, the temperature of the solid-liquid transition) amounted to 191.2 °C. This molecule also yielded an IC50 against C-Kit of 8000 nM. The IC50 against KDR kinase came out at 30 nM.

Consider `COc1ccc2cc(NC(=O)c3ccccc3NCc3ccncc3)c(=O)oc2c1` [Example 5], for which the melting point lay within 171 to 172 °C. The molecule also showed a 50% inhibitory concentration (IC50) against C-Kit of more than 10000 nM. The same molecule yielded an IC50 at KDR kinase of 10 nM.

In turn, `O=C(Nc1cc2cc(Cl)ccc2oc1=O)c1ccccc1NCc1ccncc1` [Example 6] yielded a melting point of 182 to 184 °C. In addition, half-maximal inhibition at KDR kinase (IC50) required 200 nM.

Turning to `O=C(Nc1cc2cc(Br)ccc2oc1=O)c1ccccc1NCc1ccncc1` [Example 7], the melting point lay in the range of 198 to 200 °C. At C-Kit, this molecule gave an IC50 of more than 10000 nM. Also, at KDR kinase, half-maximal inhibition (IC50) required 200 nM.

Consider `Cc1cc2cn[nH]c2cc1NC(=O)c1ccccc1NCc1ccncc1` [Example 9], for which, on KDR kinase, the IC50 turned out to be 40 nM.

`O=C(Nc1cc2[nH]ncc2cc1Cl)c1ccccc1NCc1ccncc1` [Example 10]: the melting point was found to be 236.7 °C. This molecule came in with an IC50 against C-Kit of more than 10000 nM. The molecule further came in with an IC50 on KDR kinase of 10 nM.

`Cc1cc2[nH]ncc2cc1NC(=O)c1ccccc1NCc1ccncc1` [Example 11] came in with a melting point of 224.2 °C. At C-Kit, this molecule had a concentration for half-maximal inhibition (IC50) of more than 10000 nM. On KDR kinase, this molecule registered a concentration for half-maximal inhibition (IC50) of 1000 nM.

The molecule `COc1ccc(C(F)(F)F)cc1NC(=O)c1ccccc1NCc1ccncc1` [Example 13] returned a melting point of 135 °C. For the same molecule, at C-Kit, half-maximal inhibition (IC50) was put at 5000 nM. At KDR kinase, this molecule gave a half-inhibitory concentration (IC50) of 50 nM.

Regarding `O=C(Nc1cc(C(F)(F)F)ccc1Cl)c1ccccc1NCc1ccncc1` [Example 14], the melting point came to 105 °C. Further, the midpoint of inhibition against C-Kit, the IC50, lay at 5000 nM. Also, at KDR kinase, it took 1 nM to reach half-maximal inhibition (IC50).

With `O=C(Nc1cc(C(F)(F)F)ccc1F)c1ccccc1NCc1ccncc1` [Example 15], the results for the IC50 at C-Kit and at KDR kinase were 2000 nM and 2 nM, respectively.

Molecule `O=C(Nc1cc(C(F)(F)F)ccc1C(F)(F)F)c1ccccc1NCc1ccncc1` [Example 17] showed a melting point of 68 °C. The same molecule showed a half-inhibitory concentration (IC50) against C-Kit of more than 10000 nM.

As for `O=C(Nc1ncc2ccccc2c1Br)c1ccccc1NCc1ccncc1` [Example 26], the melting point was determined as 135.8 °C. For the same molecule, the IC50 on C-Kit was found to be 2000 nM. In addition, it took 1 nM to reach half-maximal inhibition at KDR kinase (IC50).

For `Cc1cc2cc(Cl)ccc2nc1NC(=O)c1ccccc1NCc1ccc(O)nc1` [Example 28], the melting point stood at 172 °C. The IC50 on C-Kit was 500 nM. At KDR kinase, the midpoint of inhibition, the IC50, lay at 50 nM.
